# Data published in patent US20130164847A1, “USE OF A PROTEIN TYROSINE KINASE INHIBITOR FOR INDUCING THE DIFFERENTIATION OF MESENCHYMAL STEM CELLS INTO CARDIOGENIC CELLS” (PHARMICELL. CO., LTD., priority 2010, published 2013).
# Tested on: mesenchymal stem cells
# Assay: Sandwich ELISA of cTnT after ex vivo differentiation of rat MSCs by PTK inhibitor treatment
# Assay type: cell-based
# Conditions: rat MSCs cultured 9 days with 1 μM or 10 μM compound
# Experimental: For the second subculture, MSCs were dispensed on a 60 mm plate at 2×10^5 cells/ml using the identical medium as above, treated with N-(3-bromophenyl)-6,7-diethoxyquinazoline-4-amine (Sigma), a protein tyrosine kinase (PTK) inhibitor, at a final concentration of 1 μM or 10 μM. The cells were cultured for 9 days, wherein the medium was replaced once every three days with a fresh medium containing the aforementioned compound.
# 100 ng of capture antibodies were bound to polyvinyl chloride (PVC) and microtiter high-binding plate (96 wells) at 4° C. overnight. The plate was washed twice with PBS, capture antibodies were blocked with PBS containing 5% BSA overnight under moist air at the room temperature. The plate was washed twice with PBS, and 5 ug of cell lysates together with blocking buffer was added to each well. The plate was incubated at 37° C. for 1.5 hours. The plate was washed 4 times with PBS containing 0.02% Tween-20. Upon adding detector antibodies, the plate was incubated under moist air and the room temperature for 2 hours, and washed 4 times with PBS containing 0.02% Tween-20. […] After 10 minutes, the reaction was stopped by adding 25 ul of 0.1M H2SO4, then the absorbance at 450 nm was immediately measured with an ELISA plate reader (Bio-Rad). […]
compound,measurement,setting,value
"CCOc1cc2ncnc(Nc3cccc(Br)c3)c2cc1OCC [compound #23, N-(3-bromophenyl)-6,7-diethoxyquinazoline-4-amine]","differentiation into myocardial cells (sandwich ELISA, FIG. 13)",,increases depending on the concentration
same,expression ratio of cardiac troponin T (cTnT),"sandwich ELISA, FIG. 13",increasing expression ratio of cardiac troponin T (cTnT) by the method dependent on dosage
